# From a compilation of properties of binary mixtures (doi:10.1016/j.molliq.2021.116805)
# Test: xn = mol fraction of the nth substance listed
# Settings: 101 kPa
structure (smiles),measurement,setting,value
CCCCCCCCCCCCCCCCCC[n+]1ccn(C)c1.O=S(=O)([N-]S(=O)(=O)C(F)(F)F)C(F)(F)F + CCCCCCCCCCCCCCCCn1cc[n+](C)c1.O=S(=O)([N-]S(=O)(=O)C(F)(F)F)C(F)(F)F,viscosity,"333 K, x2 = 0.621",59.3 mPa·s
same,viscosity,"343 K, x2 = 0.621",41.1 mPa·s
same,viscosity,"353 K, x2 = 0.621",29.6 mPa·s
CCCCCCCCCCCCCC[n+]1ccn(C)c1.O=S(=O)([N-]S(=O)(=O)C(F)(F)F)C(F)(F)F + CCCCCCCCCCCCCCCCn1cc[n+](C)c1.O=S(=O)([N-]S(=O)(=O)C(F)(F)F)C(F)(F)F,viscosity,"313 K, x1 = 0.6709",102.6 mPa·s
same,viscosity,"323 K, x1 = 0.6709",66.3 mPa·s
same,viscosity,"333 K, x1 = 0.6709",45.2 mPa·s
same,viscosity,"343 K, x1 = 0.6709",32 mPa·s
same,viscosity,"353 K, x1 = 0.6709",23.4 mPa·s
CCCCCCCCCCCCCCCCCC[n+]1ccn(C)c1.O=S(=O)([N-]S(=O)(=O)C(F)(F)F)C(F)(F)F + CCCCCCCCCCCCCC[n+]1ccn(C)c1.O=S(=O)([N-]S(=O)(=O)C(F)(F)F)C(F)(F)F,viscosity,"333 K, x2 = 0.7675",49.6 mPa·s
same,viscosity,"343 K, x2 = 0.7675",34.8 mPa·s
same,viscosity,"353 K, x2 = 0.7675",25.4 mPa·s
